Data reported in US12576047B2, “Telomerase activating compounds for use in fertility and related applications” (Neuromagen Pharma Ltd, priority 2017, dated 2026).

Tests used:
mouse ovary = experiment: Hematoxylin-eosin histology of mouse ovary; type: in vivo; conditions: for ovary histology: 6 mg/Kg single dose at Di-estrus stage; for ovary histology / ovary histology (follicles, granulosa cells): 12 hours; for ovary histology (follicles, granulosa cells): 6 mg/Kg single dose at met-estrus stage; for ovary histology (corpus luteum): 6 mg/Kg single dose at pro-estrus and estrus stages, 12 hrs
Text: The ovaries were weighted; one was taken for protein extraction for measuring telomerase activity by TRAP assay, and the other one for the histological examination using hematoxylin-eosin staining of the ovary and its follicles.
The mice ovaries were removed and fixed with 4% paraformaldehyde overnight, dehydrated in increasing ethanol concentrations to xylene, and embedded in paraffin. A rotary microtome was used to produce 5 μm sections, which were mounted on Superfrost plus slides. The sections were dried and heated at 37° C. overnight and stored in dry place. Paraffin-embedded sections were deparaffinized in xylene and rehydrated in decreasing concentrations of ethanol. Then the sections stained with hematoxylin-eosin or subjected to immunochemical and Immunofluorescent assays [Liani-Leibson, K., I. Har-Vardi, and E. Priel, Inhibition of topoisomerase I by anti-cancer drug altered the endometrial cyclicity and receptivity. Curr Mol Med, 2014. 14(1): p. 141-50].

LH = LH expression by RT-PCR in pituitary gland cells; type: cell-based, mouse; conditions: 50 nM, vs untreated
Protocol: FIGS. 29A, 29B, 29C and 29D: The embodied compounds affect the expression of gonadotropin hormones in pituitary gland cells. Cells (L T2) derived from the mouse pituitary gland were assessed for their secretion of LH and FSH at 6 (FIGS. 29A and 29B) and 12 hours (FIGS. 29C and 29D) following treatment with the indicated embodied compounds (50 nM). FSH and LH expression was determined by RT-PCR, and quantified from 5 different experiments, as assessed for significance, using the t test, one way ANOVA.

[1] = system: Steroidogenic acute regulatory protein (StAr); experiment: StAr relative mRNA levels by qRT-PCR in granulosa cells; type: cell-based, rat; conditions: 50 nM for 6 hours
Protocol: (§1) Immortalized rat granulosa cells expressing FSH receptor were treated with either pregnant mare serum gonadotropin (PMSG), or the indicated compounds, or both for 6 hours. Protein extracts prepared from these cells served for telomerase activity measurement using a telomere repeat amplification protocol (TRAP) assay.
(§2) Briefly, protein extract incubated with oligonucleotide, which serves as a template for telomerase (TS), for 45 minutes at 30° C. followed by PCR with reverse primer (ACX) and internal control. PCR products were separated on 4.5% agarose gel. RNA extracts were used for cDNA synthesis and quantitative real time PCR with specific primers to Telomerase reverse transcriptase (TERT), Steroidogenic acute regulatory protein (StAr) and β-actin as a reference gene. To measure progesterone levels secreted by the cells, granulosa cells were cultured with or without 1 IU/mL PMSG and DMSO, Compound 79 50 nM or compound 70 50 nM in the presence of 100 nM dexamethasone. After 24 hours progesterone levels cell-culture medium were determined by radioimmunoassay (RIA). For cell proliferation measurement, 1×10^5 cells were seeded in a 96 wells plate with 1 IU/mL PMSG and DMSO, Compound 79 50 nM or Compound 70 50 nM. After 24 hours cells viability was measured by XTT proliferation assay.

[2] = system: Telomerase reverse transcriptase (TERT); experiment: TERT relative mRNA levels by qRT-PCR in granulosa cells; type: cell-based, rat; conditions: 50 nM and 200 nM for 6 hours
Protocol: as §1, §2

female mice = experiment: Progesterone levels in mouse serum; type: in vivo; conditions: compared to DMSO or UT, 12 hrs post treatment, P, E, and M stages
Protocol: Blood samples were taken from the sacrificed mouse and following centrifugation (3800 rpm, 10 min) the serum was sent to the clinical endocrinology laboratory (Soroka University Medical Center, Beer-Sheva, Israel) for determination of progesterone levels.

telomerase = target: T1, telomerase (Rattus norvegicus, UniProt Q673L6); experiment: TRAP assay of telomerase activity in granulosa cells; type: cell-based; conditions: 50 nM and 200 nM for 6 hours
T1 construct: Protein extracts prepared from these cells served for telomerase activity measurement; endogenous in cells; host or cells: immortalized rat granulosa cells expressing FSH receptor
T1 sequence (Q673L6 whole entry): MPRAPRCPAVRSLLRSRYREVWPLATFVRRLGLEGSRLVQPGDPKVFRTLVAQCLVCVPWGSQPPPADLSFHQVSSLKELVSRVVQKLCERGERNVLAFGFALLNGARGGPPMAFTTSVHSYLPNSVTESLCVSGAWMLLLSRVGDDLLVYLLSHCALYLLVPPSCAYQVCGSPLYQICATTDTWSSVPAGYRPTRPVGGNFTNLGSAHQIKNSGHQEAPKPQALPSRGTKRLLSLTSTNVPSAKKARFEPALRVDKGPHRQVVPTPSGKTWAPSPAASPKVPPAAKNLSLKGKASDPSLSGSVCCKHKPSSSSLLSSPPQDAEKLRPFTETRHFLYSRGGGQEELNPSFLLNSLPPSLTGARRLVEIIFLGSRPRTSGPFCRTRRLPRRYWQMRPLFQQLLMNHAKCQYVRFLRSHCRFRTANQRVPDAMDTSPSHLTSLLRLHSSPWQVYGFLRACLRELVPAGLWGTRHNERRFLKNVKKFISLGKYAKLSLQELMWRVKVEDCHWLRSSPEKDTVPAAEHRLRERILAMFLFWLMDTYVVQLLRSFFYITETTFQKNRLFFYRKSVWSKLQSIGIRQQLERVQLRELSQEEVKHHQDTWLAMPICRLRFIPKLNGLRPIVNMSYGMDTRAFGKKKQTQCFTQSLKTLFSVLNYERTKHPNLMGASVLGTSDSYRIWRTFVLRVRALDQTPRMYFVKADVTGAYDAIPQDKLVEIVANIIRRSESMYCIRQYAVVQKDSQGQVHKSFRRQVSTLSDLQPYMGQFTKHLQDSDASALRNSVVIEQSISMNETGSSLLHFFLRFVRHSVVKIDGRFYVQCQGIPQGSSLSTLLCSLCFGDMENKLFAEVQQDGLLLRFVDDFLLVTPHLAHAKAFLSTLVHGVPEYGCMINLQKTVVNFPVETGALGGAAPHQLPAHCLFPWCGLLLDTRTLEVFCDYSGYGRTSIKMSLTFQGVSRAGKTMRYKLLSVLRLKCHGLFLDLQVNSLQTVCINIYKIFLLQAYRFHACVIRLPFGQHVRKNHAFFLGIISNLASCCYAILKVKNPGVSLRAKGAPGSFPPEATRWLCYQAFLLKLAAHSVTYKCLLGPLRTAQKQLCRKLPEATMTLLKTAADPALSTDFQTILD
Protocol: as §1, §2

mouse testes = experiment: H&E histology of testes after X-ray radiation; type: in vivo; conditions: X-ray 2.5 Gy then injection, 12 hrs
Protocol: (§3) Toward this end, ICR mice (3 months old) were injected with 6 mg/kg of Compound 79, Compound 68 or Compound 70, or mice were subjected to X-ray radiation (2.5 Gy) followed by immediately injection of the respective compounds. Control mice were untreated or vehicle treated with or without exposure to X-ray radiation. The testes were removed 12 hrs after treatments and subjected to protein extracts or total RNA preparations for the examination of telomerase activity by TRAP assay, telomerase expression by Western blot and real time PCR. Testes were also taken for immunohistochemical and immunofluorescence analysis with various spermatogenesis markers. Epididymis was also taken for sperm count.

ICR mice = experiment: Sperm count from the epididymis, with or without X-ray radiation; type: in vivo, mouse
Protocol: as §3, with “The testes were removed 12 hrs after treatments and subjected to protein extracts or total RNA preparations for the examination of telomerase activity by TRAP assay, telomerase expression by Western blot and real time PCR.” left out

sperm = experiment: Sperm head morphology after X-ray radiation; type: in vivo, mouse; conditions: X-ray 2.5 Gy, single S.C. injection 6 mg/kg, 12 hours
Protocol: Three-month old mice were irradiated with X-ray (2.5 Gy) and treated with a single S.C. injection of 6 mg/kg of compound 68 or 70. Mice were sacrificed 12 hours later and sperm were removed from the epididymis and stained with eosin. The number of morphologically defective sperm (head morphology) were quantified and presented as a percentage value of the total sperm count (N=6 mice per group) (FIG. 26A). FIG. 26B provides a light micrograph showing healthy and defective sperm head morphology observed. The arrows labeled 1 and 2 point to defective sperm head morphology, and the arrows labeled 3 and 4 point to healthy sperm head morphology

CREM = CREM expression in X-ray irradiated testis; type: in vivo, mouse; conditions: X-ray 2.5 Gy then injection, 12 hrs
Protocol: as §3

Structure (SMILES) | ovary histology (mouse ovary) | ovary histology (follicles, granulosa cells) (mouse ovary) | ovary histology (corpus luteum) (mouse ovary) | LH expression (LH; 6 hours post treatment) | expression of StAr [1] | TERT relative mRNA levels [2] | increase in the secretion of progesterone (female mice) | telomerase activity (TRAP) (telomerase) | LH expression (LH; 12 hours) | morphology of testicular tissue (H&E) (mouse testes) | sperm count (ICR mice; irradiated mice, 9 and 30 days post irradiation) | sperm cells number from the epididymis (ICR mice; non-irradiated mice, 12 hrs post treatment, compared to DMSO) | number of defective sperm cells (head morphology) (sperm) | CREM expression in testis (CREM)
CCOCc1cc(C(C)(c2cc(COCC)c(O)c(COCC)c2)c2cc(COCC)c(O)c(COCC)c2)cc(COCC)c1O [Compound 79] | multiple layers of granulosa cells (GC) around the oocytes | more developed follicles (white arrow) and plurality of layers of granulosa cells (GC) around the oocytes | more corpus luteum (CL) than in the control group | increased expression of LH above untreated levels | increased expression of StAr | increased expression in a dose-dependent fashion | up to 5 folds | increased expression in a dose-dependent fashion | – | – | – | – | – | –
CC(c1cc(Br)c(O)c(Br)c1)(c1cc(Br)c(O)c(Br)c1)c1cc(Br)c(O)c(Br)c1 [Compound 68] | a plurality of corpus luteum (CL) | more developed follicles (white arrow) and plurality of layers of granulosa cells (GC) around the oocytes | more corpus luteum (CL) than in the control group | – | – | – | – | – | increased LH production above untreated levels | protected the spermatogonia cells layer from the damaging effects of X-ray and the morphology of the testicular tissue remained intact | increased sperm count at 9 and 30 days post irradiation | a significant increase | reduction in the number of defective sperm cells | restored the expression of the spermatogenesis markers
